Laboratory results as given in publication PMC10743086, “Immunofluorescence-Based Assay for High-Throughput Analysis of Multidrug Resistance Markers in Non-Small Cell Lung Carcinoma Patient-Derived Cells” (Diagnostics, 2023).
pIC50: −log10 of the molar value.

Legend:
Type in all cases: cell-based, human
[1] = system: Cancer cells (CK8/18+) of patient-derived NSCLC cultures; assay: Cytotoxicity in patient-derived NSCLC cultures, cancer cells; conditions: 7 days treatment
Method: (§1) Tissue samples were collected during surgery, and the NSCLC diagnosis, histological grade, stage, necrosis, and lymph node invasion status were determined by histopathological analysis. […] The surgical specimens were placed in a sterile tube containing antibiotic-antimycotic solution (Sigma-Aldrich Chemie GmbH, Taufkirchen, Germany) and immediately transported to the research laboratory for further processing.
(§2) Upon arrival, the tissue was manually chopped with a surgical blade in a Petri dish under sterile conditions. The samples were cut into 3–5 mm pieces and further dissociated using the Tumor Dissociation Kit (Miltenyi Biotec, Bergisch Gladbach, Germany). The Tumor Dissociation Kit was used to dissociate the cells from the tumor tissue according to the manufacturer’s instructions. The samples were incubated in a 37 °C orbital shaker (KS 4000 ic control, IKA, Königswinter, Germany) at 300 rpm for 90 min. After incubation, the dissociated tissue was placed in DMEM/Ham’s F12 (1:3 ratio) growth medium supplemented with 5% fetal bovine serum (Corning, NY, USA), antibiotic-antimycotic solution, 4 µg/mL hydrocortisone (Sigma-Aldrich Chemie GmbH, Taufkirchen, Germany), 1 µg/mL insulin (Sigma-Aldrich Chemie GmbH, Taufkirchen, Germany), 10 ng/mL epidermal growth factor (BioLegend, San Diego, CA, USA), and 24 µg/mL adenine (Sigma-Aldrich Chemie GmbH, Taufkirchen, Germany). The DMEM and Ham’s F12 growth media were purchased from Sigma-Aldrich Chemie GmbH (Taufkirchen, Germany).
(§3) The dissociated tissue was cultured in T-25 cell culture flasks until cell attachment was observed before the medium was replaced. If no cell attachment was achieved within 7 days, the sample was discarded. Successful patient-derived cultures were maintained at 37 °C in a humidified atmosphere with 5% CO2 and grown to confluence before undergoing further experiments. […] Partial trypsinization was performed by detaching the fibroblast-like cells with 1 mL of 0.05% trypsin for 1 min at 37 °C, followed by 2 min at room temperature (RT).
(§4) Vinorelbine and pemetrexed were purchased from Selleckchem (Houston, TX, USA). Carboplatin, cisplatin, docetaxel, etoposide, gemcitabine, gefitinib, and paclitaxel were purchased from Sigma-Aldrich Chemie GmbH (Taufkirchen, Germany). The cisplatin, carboplatin, and gemcitabine were dissolved in sterile water, while the etoposide, docetaxel, vinorelbine, paclitaxel, gefitinib, and pemetrexed were dissolved in DMSO and stored at −20 °C. Before treatment, all the stock solutions were freshly diluted in sterile water.
(§5) The primary cells were seeded in black, clear bottom 384-well cell culture microplates (Thermo Fisher Scientific, Waltham, MA, USA) in 50 µL of cell growth medium at a density of 1000 cells per well. The compounds were administered 72 h after seeding. The treatment lasted 7 days.
(§6) The immunofluorescence assay for the quantification of MDR markers was optimized to distinguish cancer cells from stromal cells using a cytokeratin 8/18 (CK8/18) antibody cocktail. The cells were fixed with 4% paraformaldehyde for 20 min at RT and washed three times with PBS using the Wellwash Versa microplate washer (Thermo Fisher Scientific, Waltham, MA, USA). The cells were then blocked with 2% bovine serum albumin (BSA) in PBS for 1 h at RT. […] Co-immunostaining with antibodies against MDR markers was performed to detect the presence of ABCB1, ABCC1, and ABCG2 in both the cancer and stromal cells. […] The secondary antibodies were incubated with the cells at RT for 2 h in the dark. […] Finally, the cells were washed three times with PBS and stored at 4 °C in the dark before imaging.

[2] = system: ABCG2 expression in non-cancer cells (CK8/18-); assay: Immunofluorescence assay of ABCG2 expression in patient-derived NSCLC cultures, non-cancer cells; conditions: 7 days
Method: as §1
Upon arrival, the tissue was manually chopped with a surgical blade in a Petri dish under sterile conditions. The samples were cut into 3–5 mm pieces and further dissociated using the Tumor Dissociation Kit (Miltenyi Biotec, Bergisch Gladbach, Germany). The Tumor Dissociation Kit was used to dissociate the cells from the tumor tissue according to the manufacturer’s instructions. The samples were incubated in a 37 °C orbital shaker (KS 4000 ic control, IKA, Königswinter, Germany) at 300 rpm for 90 min. […]
The immunofluorescence assay for the quantification of MDR markers was optimized to distinguish cancer cells from stromal cells using a cytokeratin 8/18 (CK8/18) antibody cocktail. […]

NCI-H460 cells = assay: Cytotoxicity by immunofluorescence cell scoring (cell counts), NSCLC cell line; conditions: 24 h treatment
Method: as §4
The compounds were administered 48 h after seeding. The treatment lasted 24 h.
as §6
The fluorescently labeled cells were imaged using the ImageXpress Pico Automated Cell Imaging System (Molecular Devices, San Jose, CA, USA) with a 4x objective after determining the appropriate exposure time for each illumination filter. Analysis of the obtained images was performed using CellReporterXpress software v. 2.8.2.669 (Molecular Devices). The cytotoxicity of the compounds was determined using the Cell Scoring Analysis Protocol. […] Expression of MDR markers was determined using the Multi-Wavelength Cell Scoring Analysis Protocol.

[3] = system: ABCC1 expression in non-cancer cells (CK8/18-); assay: Immunofluorescence assay of ABCC1 expression in patient-derived NSCLC cultures, non-cancer cells; conditions: sample TR58, chemotherapeutics, 7 days
Method: as §1, §2, §3, §4, §5, §6

[4] = Homo sapiens, 168 h, culture TR58, cancer cells (CK8/18+)
[5] = Homo sapiens, 168 h, culture TR64, cancer cells (CK8/18+)
[6] = Homo sapiens, 168 h, culture TR65, cancer cells (CK8/18+)
[7] = Homo sapiens, 168 h, culture TR84, cancer cells (CK8/18+)
[8] = Homo sapiens, 168 h, culture TR87, cancer cells (CK8/18+)
[9] = Homo sapiens, NCI-H460, 24 h, NCI-H460 (co-culture with MRC-5)
[10] = Homo sapiens, NCI-H460, 24 h, NCI-H460 monoculture

Row | SMILES | pIC50 ([1]; culture TR58, cancer cells (CK8/18+)) | pIC50 ([1]; culture TR64, cancer cells (CK8/18+)) | pIC50 ([1]; culture TR65, cancer cells (CK8/18+)) | pIC50 ([1]; culture TR84, cancer cells (CK8/18+)) | pIC50 ([1]; culture TR87, cancer cells (CK8/18+)) | ABCG2 expression in CK8/18− cells ([2]; sample TR58, chemotherapeutics) | pIC50 (NCI-H460 cells; NCI-H460 (co-culture with MRC-5)) | pIC50 (NCI-H460 cells; NCI-H460 monoculture) | pIC50 [1, 4] | pIC50 [1, 5] | pIC50 [1, 6] | pIC50 [1, 7] | pIC50 [1, 8] | ABCC1 expression in CK8/18− cells [3] | pIC50 (NCI-H460 cells; [9]) | pIC50 (NCI-H460 cells; [10]) | ABCG2 expression in CK8/18− cells ([2]; sample TR65, chemotherapeutics)
1 | N.N.[Cl][Pt][Cl] [Cisplatin, cisplatin] | 5.24 | 5.22 | 4.83 | 5.68 | 5.32 | increased | 5.01 | 5.24 | – | – | – | – | – | – | – | – | –
2 | CC(=O)O[C@@]12CO[C@@H]1C[C@H](O)[C@@]1(C)C(=O)[C@H](O)C3=C(C)[C@@H](OC(=O)[C@H](O)[C@@H](NC(=O)OC(C)(C)C)c4ccccc4)C[C@@](O)([C@@H](OC(=O)c4ccccc4)[C@H]21)C3(C)C [Docetaxel, docetaxel] | – | – | – | – | – | – | – | – | 5.88 | 5.81 | < 5.30 | 5.73 | < 5.30 | elevated | 6.19 | 6.26 | –
3 | COc1cc([C@@H]2c3cc4c(cc3[C@@H](O[C@@H]3O[C@@H]5CO[C@@H](C)O[C@H]5[C@H](O)[C@H]3O)[C@H]3COC(=O)[C@H]23)OCO4)cc(OC)c1O [Etoposide, etoposide] | – | – | – | – | – | – | – | – | 5.15 | 4.92 | 4.60 | 5.53 | 4.89 | – | 5.22 | 5.32 | –
4 | Nc1ccn([C@@H]2O[C@H](CO)[C@@H](O)C2(F)F)c(=O)n1 [Gemcitabine, gemcitabine] | – | – | – | – | – | – | – | – | 5.59 | 5.31 | 5.31 | 5.57 | 5.47 | elevated | 4.46 | 4.38 | elevated
5 | CC(=O)O[C@H]1C(=O)[C@@]2(C)[C@H]([C@H](OC(=O)c3ccccc3)[C@]3(O)C[C@H](OC(=O)[C@H](O)[C@@H](NC(=O)c4ccccc4)c4ccccc4)C(C)=C1C3(C)C)[C@]1(OC(C)=O)CO[C@@H]1C[C@@H]2O [Paclitaxel, paclitaxel] | – | – | – | – | – | – | – | – | 5.93 | 5.87 | 5.93 | 5.59 | 5.32 | elevated | 6.47 | 6.42 | –
6 | Nc1nc2[nH]cc(CCc3ccc(C(=O)N[C@@H](CCC(=O)O)C(=O)O)cc3)c2c(=O)[nH]1 [Pemetrexed, pemetrexed] | – | – | – | – | – | – | – | – | 3.74 | 3.60 | 3.64 | < 3.52 | < 3.52 | – | < 3.52 | < 3.52 | –
7 | CCC1=C[C@@H]2CN(C1)Cc1c([nH]c3ccccc13)[C@@](C(=O)OC)(c1cc3c(cc1OC)N(C)[C@H]1[C@@](O)(C(=O)OC)[C@H](OC(C)=O)[C@]4(CC)C=CCN5CC[C@]31[C@@H]54)C2 [Vinorelbine] | – | – | – | – | – | – | – | – | 6.89 | 6.77 | < 6.00 | 6.75 | < 6.00 | – | 7.48 | 7.44 | –
